Earlier results, collected in US12102684B2, “Methods of making and using polyphenols complexed with a protein, peptide, amino acid, polysaccharide, disaccharide, or monosaccharide” (priority 2016, dated 2024).

Experiments:
[1] = previous studies

| SMILES | solubility in organic solvents (organic solvents (methanol, acetone, DMSO, etc.)) | solubility in water | oral clearance [1] [mL/min/kg] |
| --- | --- | --- | --- |
| Oc1ccc(/C=C/c2cc(O)cc(O)c2)cc1 [Resveratrol, 3,5,4′-trihydroxy-trans-stilbene] | 16-50 grams/liter | 0.03 grams/liter | – |
| COc1cc([C@@H]2Oc3c(O)cc([C@H]4Oc5cc(O)cc(O)c5C(=O)[C@@H]4O)cc3[C@H]2CO)ccc1O [Silychristin] | – | water insoluble | – |
| COc1cc(/C=C/C(=O)CC(=O)/C=C/c2ccc(O)c(OC)c2)ccc1O [curcumin, (1E,6E)-1,7-bis(4hydroxy-3-methoxyphenyl)hepta-1,6-diene-3,5-dione] | – | very poor | 1808 |
